According to US11492335B2, “Aryl or heteroaryl triazolone derivatives or salts thereof, or pharmaceutical compositions comprising the same” (YUHAN CORPORATION, priority 2018, dated 2022):
Where a name gives a salt, the structure may show the parent alone. Read-outs that look alike come from different tables or passages of the source.

Columns and labels:
Format in all cases: biochemical
[1] = target: T1, recombinant human MAO-A (monoamine oxidase-A) (Homo sapiens, UniProt P21397); test: Activity on recombinant human MAO-A, Amplex Red method, 0.5 mM tyramine substrate; conditions: read-out: Inhibitory Activity (IC50, nM) MAO-A
T1 construct: purchased Sigma-Aldrich
T1 sequence (P21397 1-527): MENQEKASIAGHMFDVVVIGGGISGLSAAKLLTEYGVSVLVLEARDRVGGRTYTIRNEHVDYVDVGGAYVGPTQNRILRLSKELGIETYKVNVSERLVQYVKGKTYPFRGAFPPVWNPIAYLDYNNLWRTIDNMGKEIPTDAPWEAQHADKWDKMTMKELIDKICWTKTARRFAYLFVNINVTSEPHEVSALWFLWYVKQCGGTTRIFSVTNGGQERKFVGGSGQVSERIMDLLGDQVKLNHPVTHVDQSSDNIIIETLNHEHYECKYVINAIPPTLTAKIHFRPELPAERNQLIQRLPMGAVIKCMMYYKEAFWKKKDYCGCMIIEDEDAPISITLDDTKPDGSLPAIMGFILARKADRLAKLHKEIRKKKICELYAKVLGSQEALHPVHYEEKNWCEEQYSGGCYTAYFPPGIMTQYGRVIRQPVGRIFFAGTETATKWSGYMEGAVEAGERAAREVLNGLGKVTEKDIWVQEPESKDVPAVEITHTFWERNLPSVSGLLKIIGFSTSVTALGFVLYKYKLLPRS
Summary of the method: (§1)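 HRP-coupled Amplex Red H2O2 assay, 50 mM sodium phosphate pH 7.4; compounds (8-point 1:3 series, final DMSO <1%) preincubated with enzyme 30 min at 37° C, then 200 uM Amplex Red, 1 U/mL HRP and substrate (MAO-A 0.5 mM tyramine; MAO-B 1 mM benzylamine) added. Resorufin fluorescence (ex 544/em 590 nm) read over 1-2 h; IC50 from four-parameter logistic fit.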

[2] = target: T2, recombinant human VAP-1 (Homo sapiens, UniProt Q16853); test: Activity on recombinant human VAP-1, Amplex Red HRP-coupled hydrogen peroxide assay, benzylamine substrate; conditions: recombinant human VAP-1, benzylamine substrate, read-out: Inhibitory Activity (IC50, nM) human VAP-1
T2 construct: purchased R&D systems
T2 sequence (Q16853 1-763): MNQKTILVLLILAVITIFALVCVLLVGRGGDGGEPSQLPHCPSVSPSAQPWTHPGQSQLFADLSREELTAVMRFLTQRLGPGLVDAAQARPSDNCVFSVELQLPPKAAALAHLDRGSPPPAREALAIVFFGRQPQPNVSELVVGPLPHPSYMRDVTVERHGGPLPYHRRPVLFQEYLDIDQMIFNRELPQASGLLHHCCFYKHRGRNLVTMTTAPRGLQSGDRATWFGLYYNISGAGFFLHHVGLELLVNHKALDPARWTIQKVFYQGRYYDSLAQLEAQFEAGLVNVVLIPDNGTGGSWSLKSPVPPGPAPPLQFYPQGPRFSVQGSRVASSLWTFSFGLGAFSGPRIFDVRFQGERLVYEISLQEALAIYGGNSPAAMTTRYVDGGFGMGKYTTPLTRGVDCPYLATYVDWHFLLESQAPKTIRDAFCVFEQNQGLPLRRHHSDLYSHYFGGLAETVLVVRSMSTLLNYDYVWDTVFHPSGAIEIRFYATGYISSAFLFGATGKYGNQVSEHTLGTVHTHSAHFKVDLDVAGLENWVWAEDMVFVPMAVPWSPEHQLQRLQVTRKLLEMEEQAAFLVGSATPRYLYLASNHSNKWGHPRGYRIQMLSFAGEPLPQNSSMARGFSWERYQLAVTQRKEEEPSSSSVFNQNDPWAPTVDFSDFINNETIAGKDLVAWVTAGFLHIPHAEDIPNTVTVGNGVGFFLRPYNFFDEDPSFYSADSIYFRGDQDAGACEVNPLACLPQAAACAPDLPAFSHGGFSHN
Summary of the method: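 8-point 1:3 dilutions, final DMSO <1%; 30 min enzyme preincubation, 37 °C, pH 7.4 phosphate. Start: 1 mM benzylamine + 200 uM Amplex Red + 1 U/mL HRP. Read ex544/em590 over 1-2 h; % rate decrease vs DMSO control, 4-parameter logistic IC50.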

[3] = target: T3, recombinant human DAO (diamine oxidase) (Homo sapiens, UniProt P19801); test: Activity on recombinant human DAO, Amplex Red method, 1 mM putrescine substrate; conditions: recombinant human DAO, read-out: Inhibitory Activity (IC50, nM) DAO
T3 construct: purchased R&D systems
T3 sequence (P19801 20-751): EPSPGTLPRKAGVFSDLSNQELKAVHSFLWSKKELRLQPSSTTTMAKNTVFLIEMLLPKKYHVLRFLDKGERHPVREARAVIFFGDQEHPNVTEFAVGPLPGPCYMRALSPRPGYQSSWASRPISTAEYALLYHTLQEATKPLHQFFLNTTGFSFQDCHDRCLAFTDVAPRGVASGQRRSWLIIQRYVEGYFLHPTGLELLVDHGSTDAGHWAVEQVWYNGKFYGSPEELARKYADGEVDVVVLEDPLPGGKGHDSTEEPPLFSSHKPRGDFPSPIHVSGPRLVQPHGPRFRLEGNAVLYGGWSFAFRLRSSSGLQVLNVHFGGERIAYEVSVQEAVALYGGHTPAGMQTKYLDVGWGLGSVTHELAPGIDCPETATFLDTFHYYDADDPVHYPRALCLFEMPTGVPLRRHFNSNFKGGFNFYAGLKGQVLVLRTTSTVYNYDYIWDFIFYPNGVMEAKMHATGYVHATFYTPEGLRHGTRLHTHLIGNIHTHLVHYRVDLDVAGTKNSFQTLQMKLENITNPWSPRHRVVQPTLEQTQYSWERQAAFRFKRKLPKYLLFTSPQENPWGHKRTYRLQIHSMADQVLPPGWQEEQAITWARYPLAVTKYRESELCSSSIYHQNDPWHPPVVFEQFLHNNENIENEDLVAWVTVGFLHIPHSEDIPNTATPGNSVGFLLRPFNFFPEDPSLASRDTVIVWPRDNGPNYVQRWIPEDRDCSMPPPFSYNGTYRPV
Summary of the method: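 Inhibition of recombinant human DAO (diamine oxidase, R&D systems) was assessed with the Amplex Red Hydrogen Peroxide Assay Kit. Hydrogen peroxide produced from 1 mM putrescine was detected through an HRP-coupled reaction that converts Amplex Red into fluorescent resorufin, read at 544 nm excitation and 590 nm emission. IC50 values came from four-parameter logistic fits in GraphPad Prism.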

[4] = target: T4, recombinant human MAO-B (monoamine oxidase-B) (Homo sapiens, UniProt P27338); test: Activity on recombinant human MAO-B, Amplex Red method, 1 mM benzylamine substrate; conditions: read-out: Inhibitory Activity (IC50, nM) MAO-B
T4 construct: purchased Sigma-Aldrich
T4 sequence (P27338 1-520): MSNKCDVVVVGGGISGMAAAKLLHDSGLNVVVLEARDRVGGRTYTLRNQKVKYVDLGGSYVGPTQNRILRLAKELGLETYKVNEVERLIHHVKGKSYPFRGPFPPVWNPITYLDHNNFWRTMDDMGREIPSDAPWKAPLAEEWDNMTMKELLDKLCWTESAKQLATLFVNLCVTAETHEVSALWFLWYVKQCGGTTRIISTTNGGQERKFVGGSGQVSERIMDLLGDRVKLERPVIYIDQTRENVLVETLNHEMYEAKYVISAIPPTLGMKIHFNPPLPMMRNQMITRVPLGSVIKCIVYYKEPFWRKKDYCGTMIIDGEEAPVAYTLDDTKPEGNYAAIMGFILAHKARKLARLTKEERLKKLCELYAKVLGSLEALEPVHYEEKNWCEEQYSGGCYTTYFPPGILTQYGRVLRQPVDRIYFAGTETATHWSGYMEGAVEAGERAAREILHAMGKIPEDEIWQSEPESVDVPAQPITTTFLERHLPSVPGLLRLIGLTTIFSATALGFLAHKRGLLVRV
Summary of the method: as §1

[5] = 1 mM putrescine, * = between 10 and 100 nM, ** = between 300 and 1000 nM

`NC/C(=C\F)Cn1ncn(-c2cccc(-c3cc4ccccc4s3)c2)c1=O` [Example 101, 2-[(2E)-2-(aminomethyl)-3-fluoroprop-2-en-1-yl]-4-[3-(1-benzothiophen-2-yl)phenyl]-2,4-dihydro-3H-1,2,4-triazol-3-one hydrochloride] showed an IC50 ([1]; 0.5 mM tyramine) of 58000 nM, an IC50 ([2]; 30 min preincubation at 37° C.) of 0.9 nM and an IC50 [3, 5] of 34 nM. The IC50 ([4]; 1 mM benzylamine) was 300 nM.
In the case of `NC/C(=C\F)Cn1ncn(-c2cnc(-c3ccc(-c4nc[nH]n4)cc3)cn2)c1=O` [Example 218, 2-[(2E)-2-(aminomethyl)-3-fluoroprop-2-en-1-yl]-4-{5-[4-(1H-1,2,4-triazol-3-yl)phenyl]pyrazin-2-yl}-2,4-dihydro-3H-1,2,4-triazol-3-one], the IC50 ([1]; 0.5 mM tyramine substrate) is reported as > 100000 nM, the IC50 [2] is reported as 1.9 nM and the IC50 ([3]; 1 mM putrescine substrate) is reported as < 100 nM. The IC50 ([4]; 1 mM benzylamine substrate) was 49 nM.
With `CC(=O)Nc1ccc(-c2ccc(-c3cccc(-n4cnn(C/C(=C/F)CN)c4=O)c3)cc2)cc1` [Example 68, N-(3″-{1-[(2E)-2-(aminomethyl)-3-fluoroprop-2-en-1-yl]-5-oxo-1,5-dihydro-4H-1,2,4-triazol-4-yl}-1,1′:4′,1″-terphenyl-4-yl)acetamide hydrochloride] the IC50 ([1]; 0.5 mM tyramine) was 37800 nM, the IC50 ([2]; 30 min preincubation at 37° C.) was 0.82 nM and the IC50 [3, 5] was 2.7 nM. For the same compound, the IC50 ([4]; 1 mM benzylamine) was > 10000 nM.
For `CC(=O)Nc1cc(-c2cnc(-n3cnn(C/C(=C/F)CN)c3=O)c(C)c2)ccn1` [Example 147, (E)-N-(6-(1-(2-(aminomethyl)-3-fluoroallyl)-5-oxo-1,5-dihydro-4H-1,2,4-triazol-4-yl)-5-methyl-[3,4′-bipyridin]-2′-yl)acetamide hydrochloride], the IC50 ([1]; 0.5 mM tyramine) was > 10000 nM, the IC50 ([2]; 30 min preincubation at 37° C.) was 0.55 nM and the IC50 [3, 5] was 450 nM. For the same compound, the IC50 ([4]; 1 mM benzylamine) was > 10000 nM.
In the case of `NC/C(=C/F)Cn1ncn(-c2cccc(-c3ccc(-c4nnc[nH]4)cc3)c2)c1=O` [Example 58, 2-[(2Z)-2-(aminomethyl)-3-fluoroprop-2-en-1-yl]-4-[4′-(4H-1,2,4-triazol-3-yl)biphenyl-3-yl]-2,4-dihydro-3H-1,2,4-triazol-3-one], the IC50 ([1]; 0.5 mM tyramine) is reported as > 100000 nM, the IC50 ([2]; 30 min preincubation at 37° C.) is reported as 0.63 nM and the IC50 [3, 5] is reported as < 100 nM. The IC50 ([4]; 1 mM benzylamine) was > 10000 nM.
With `NC/C(=C\F)Cn1ncn(-c2cccc(-c3ccc4nonc4c3)c2)c1=O` [Example 96, 2-[(2E)-2-(aminomethyl)-3-fluoroprop-2-en-1-yl]-4-[3-(2,1,3-benzooxadiazol-5-yl)phenyl]-2,4-dihydro-3H-1,2,4-triazol-3-one hydrochloride] the IC50 ([1]; 0.5 mM tyramine) was > 100000 nM, the IC50 ([2]; 30 min preincubation at 37° C.) was 0.51 nM and the IC50 [3, 5] was < 100 nM. It also gave an IC50 ([4]; 1 mM benzylamine) of 390 nM.
In the case of `NC/C(=C\F)Cn1ncn(-c2cccc(-c3cnc(O)c(C(F)(F)F)c3)c2)c1=O` [Example 88, 2-[(2E)-2-(aminomethyl)-3-fluoroprop-2-en-1-yl]-4-{3-[6-hydroxy-5-(trifluoromethyl)pyridin-3-yl]phenyl}-2,4-dihydro-3H-1,2,4-triazol-3-one hydrochloride], the IC50 ([1]; 0.5 mM tyramine) is reported as > 100000 nM, the IC50 ([2]; 30 min preincubation at 37° C.) is reported as 1.1 nM and the IC50 [3, 5] is reported as < 10 nM. The IC50 ([4]; 1 mM benzylamine) was 9600 nM.
For `CC(=O)Nc1ccc(-c2cccc(-n3cnn(C/C(=C/F)CN)c3=O)c2)cc1` [Example 57, N-(3′-{1-[(2E)-2-(aminomethyl)-3-fluoroprop-2-en-1-yl]-5-oxo-1,5-dihydro-4H-1,2,4-triazol-4-yl}biphenyl-4-yl)acetamide hydrochloride], the IC50 ([1]; 0.5 mM tyramine) was 1250 nM, the IC50 ([2]; 30 min preincubation at 37° C.) was 0.38 nM and the IC50 [3, 5] was < 100 nM. The IC50 ([4]; 1 mM benzylamine) was > 10000 nM.
Work on `NC/C(=C\F)Cn1ncn(-c2ccc(Br)cc2F)c1=O` [Example 12, 2-[(2E)-2-(aminomethyl)-3-fluoroprop-2-en-1-yl]-4-(4-bromo-2-fluorophenyl)-2,4-dihydro-3H-1,2,4-triazol-3-one hydrochloride] yielded an IC50 ([1]; 0.5 mM tyramine) of 1500 nM, an IC50 ([2]; 30 min preincubation at 37° C.) of 0.75 nM and an IC50 [3, 5] of 38 nM. For the same compound, the IC50 ([4]; 1 mM benzylamine) was 281 nM.
For `NC/C(=C\F)Cn1ncn(-c2cccc(Br)n2)c1=O` [Example 37, 2-[(2E)-2-(aminomethyl)-3-fluoroprop-2-en-1-yl]-4-(6-bromopyridin-2-yl)-2,4-dihydro-3H-1,2,4-triazol-3-one], the IC50 ([1]; 0.5 mM tyramine) was > 100000 nM, the IC50 ([2]; 30 min preincubation at 37° C.) was 1.8 nM and the IC50 [3, 5] was 16 nM. For the same compound, the IC50 ([4]; 1 mM benzylamine) was > 10000 nM.
`NC/C(=C\F)Cn1ncn(-c2cnc(-c3cccc(-c4nc[nH]n4)c3)cn2)c1=O` [Example 219, 2-[(2E)-2-(aminomethyl)-3-fluoroprop-2-en-1-yl]-4-{5-[3-(1H-1,2,4-triazol-3-yl)phenyl]pyrazin-2-yl}-2,4-dihydro-3H-1,2,4-triazol-3-one] was tested, and the IC50 ([1]; 0.5 mM tyramine substrate) was > 100000 nM, the IC50 [2] was 2.3 nM and the IC50 ([3]; 1 mM putrescine substrate) was < 100 nM. The IC50 ([4]; 1 mM benzylamine substrate) was 41 nM.
For `NC/C(=C\F)Cn1ncn(-c2ncc(-c3cccc(-c4nnc[nH]4)c3)s2)c1=O` [Example 228, 2-[(2E)-2-(aminomethyl)-3-fluoroprop-2-en-1-yl]-4-{5-[3-(4H-1,2,4-triazol-3-yl)phenyl]-1,3-thiazol-2-yl}-2,4-dihydro-3H-1,2,4-triazol-3-one], the IC50 ([1]; 0.5 mM tyramine substrate) was > 100000 nM, the IC50 [2] was 0.38 nM and the IC50 ([3]; 1 mM putrescine substrate) was < 100 nM. For the same compound, the IC50 ([4]; 1 mM benzylamine substrate) was 9.2 nM.
